One assay deals with A-431. Put plainly: Antiproliferative activity against human A431 cells after 48 hrs by MTT assay. The format is functional, cell-based. The following applies: A-431, 48 h. Background: Tetrazolium assays rely on reduction of a dye to a coloured formazan, in cell work by metabolically active cells.
Another assay concerns A549. Put plainly: Antiproliferative activity against human A549 cells after 48 hrs by MTT assay. It is filed as functional, cell-based. As to conditions: A549, 48 h.
Assay [1] addresses Epidermal growth factor receptor (Homo sapiens, UniProt P00533). Briefly: Inhibition of EGFR derived from human A431 cell membrane assessed as inhibition of poly-Glu-Tyr phosphorylation after 30 mins by ELISA assay. The format is cell-based, A-431. (ELISA stands for enzyme-linked immunosorbent assay.)
A further assay concerns HL-60. Put plainly: Antiproliferative activity against human HL60 cells after 48 hrs by MTT assay. It is filed as functional, cell-based. As to conditions: HL-60, 48 h.
In a further assay the target is Histone deacetylase. Put plainly: Inhibition of HDAC derived from human HeLa cell nuclear extract using Boc-Lys(acetyl)-AMC as substrate incubated for 5 mins prior to substrate addition measured after 30 mins by fluorimetry. It is filed as protein assay.

Sequence of Epidermal growth factor receptor (P00533 whole entry): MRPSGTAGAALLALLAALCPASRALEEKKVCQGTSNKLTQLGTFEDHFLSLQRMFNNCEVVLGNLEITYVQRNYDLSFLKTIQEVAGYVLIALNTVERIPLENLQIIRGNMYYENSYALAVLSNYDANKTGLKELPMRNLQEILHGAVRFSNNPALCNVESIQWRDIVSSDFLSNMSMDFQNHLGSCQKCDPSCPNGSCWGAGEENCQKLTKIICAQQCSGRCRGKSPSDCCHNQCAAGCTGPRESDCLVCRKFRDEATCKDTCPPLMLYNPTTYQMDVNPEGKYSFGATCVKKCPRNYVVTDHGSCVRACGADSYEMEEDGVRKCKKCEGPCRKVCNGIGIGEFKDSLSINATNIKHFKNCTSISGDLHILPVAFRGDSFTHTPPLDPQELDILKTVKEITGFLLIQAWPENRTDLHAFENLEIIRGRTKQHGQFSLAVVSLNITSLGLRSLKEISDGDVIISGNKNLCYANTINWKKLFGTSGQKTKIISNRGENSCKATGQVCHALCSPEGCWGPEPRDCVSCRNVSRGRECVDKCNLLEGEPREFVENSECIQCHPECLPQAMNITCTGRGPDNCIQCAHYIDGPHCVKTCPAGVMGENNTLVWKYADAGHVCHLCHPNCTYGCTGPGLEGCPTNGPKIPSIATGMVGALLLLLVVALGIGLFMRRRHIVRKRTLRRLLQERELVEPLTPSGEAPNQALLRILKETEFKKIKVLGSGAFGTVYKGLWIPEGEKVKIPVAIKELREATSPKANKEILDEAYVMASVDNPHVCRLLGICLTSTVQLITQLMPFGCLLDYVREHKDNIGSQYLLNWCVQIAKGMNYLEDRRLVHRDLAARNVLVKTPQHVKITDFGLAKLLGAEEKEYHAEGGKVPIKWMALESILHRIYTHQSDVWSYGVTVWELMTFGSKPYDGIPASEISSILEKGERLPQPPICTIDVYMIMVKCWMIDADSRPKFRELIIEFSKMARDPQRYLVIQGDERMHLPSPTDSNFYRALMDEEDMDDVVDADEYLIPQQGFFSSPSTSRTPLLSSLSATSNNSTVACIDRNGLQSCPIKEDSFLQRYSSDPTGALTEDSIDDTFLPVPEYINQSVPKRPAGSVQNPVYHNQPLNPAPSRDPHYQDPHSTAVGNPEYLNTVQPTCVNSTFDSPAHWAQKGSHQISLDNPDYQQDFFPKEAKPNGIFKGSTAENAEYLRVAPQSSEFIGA

Regarding `C#Cc1cccc(NC(=O)c2cccc(NC(=O)CCCCCC(=O)NO)c2)c1`, the concentration for half-maximal inhibition (IC50) in the assay on A-431 is 7.08 µM; in the assay on A549, 37.6 µM; in assay [1], 6.17 µM; with HL-60, more than 100 µM; against Histone deacetylase, 3.27 µM.
For `O=C(CCCCCC(=O)Nc1ccc(O)c(C(=O)Nc2ccc(F)c(Cl)c2)c1)NO`, in that order: 3.48 µM, 21.1 µM, 3.53 µM, more than 100 µM and 3.02 µM.
For `O=C(CCCCCC(=O)Nc1ccc(O)c(C(=O)Nc2ccc(F)c(F)c2)c1)NO` the same measures were 4.01 µM, 70.1 µM, 2.22 µM, more than 100 µM and 6.02 µM.
In the case of `O=C(CCCCCC(=O)Nc1ccc(O)c(C(=O)Nc2ccc(Cl)c(C(F)(F)F)c2)c1)NO`, the IC50 is 4.14 µM with A-431; 24.1 µM with A549; 1.41 µM in assay [1]; more than 100 µM with HL-60; 3.48 µM against Histone deacetylase.
For `O=C(CCCCCC(=O)Nc1ccc(O)c(C(=O)Nc2ccccc2)c1)NO`, in that order: 5.85 µM, 14.6 µM, 2.34 µM, 20.3 µM and 1.89 µM.
For the molecule `C#Cc1cccc(NC(=O)c2cc(NC(=O)CCCCCC(=O)NO)c(OC)cc2O)c1`, the half-maximal inhibitory concentration (IC50) amounted to 4.68 µM with A-431; 18.4 µM in the assay with A549; 1.12 µM in assay [1]; 28.6 µM in the assay with HL-60; 1.86 µM against Histone deacetylase.
In the case of `C#Cc1cccc(NC(=O)c2cc(NC(=O)CCCCCC(=O)NO)ccc2O)c1`, the IC50 is 5.75 µM in the assay on A-431; 76.2 µM with A549; 3.31 µM in assay [1]; more than 100 µM in the assay with HL-60; 4.09 µM against Histone deacetylase.
For `C#Cc1cccc(NC(=O)c2cc(NC(=O)CCCCCCC(=O)NO)ccc2O)c1`, in that order: 6.11 µM, 43.6 µM, 2.25 µM, more than 100 µM and 2.03 µM.
For `C#Cc1cccc(NC(=O)c2cc(OCCCCCCC(=O)NO)ccc2O)c1`, in that order: 1.88 µM, 15.5 µM, 0.9 µM, 30.9 µM and 1.21 µM.
`COc1cc(O)c(C(=O)Nc2ccc(F)c(Cl)c2)cc1NC(=O)CCCCCC(=O)NO`: the concentration for half-maximal inhibition (IC50) on Histone deacetylase stood at 1.09 µM.
For `O=C(CCCCCC(=O)Nc1ccc(O)c(C(=O)Nc2ccc(OCc3cccc(F)c3)c(Cl)c2)c1)NO`, the IC50 is 2.6 µM with A-431; 12.4 µM in the assay with A549; 1.1 µM in assay [1]; more than 100 µM with HL-60; 3.01 µM against Histone deacetylase.
For `O=C(CCCCCC(=O)Nc1ccc(O)c(C(=O)Nc2cccc(F)c2)c1)NO` the same measures were 4.28 µM, 37.2 µM, 1.41 µM, more than 100 µM and 3.59 µM.
As to `C#Cc1cccc(NC(=O)c2cc(NC(=O)CCCCCC(=O)NO)ccc2OC)c1`, the IC50 in the assay on A-431 turned out to be 4.2 µM; in the assay on A549, 40.7 µM; in assay [1], 5.16 µM; with HL-60 it was 7.1 µM; at Histone deacetylase it was 0.56 µM.
For `O=C(CCCCCC(=O)Nc1ccc(O)c(C(=O)Nc2ccc(Cl)c(Cl)c2)c1)NO` the same measures were 3.8 µM, 17.8 µM, 1.8 µM, more than 100 µM and 3.65 µM.
For `O=C(CCCCCC(=O)Nc1ccc(O)c(C(=O)Nc2cccc(C(F)(F)F)c2)c1)NO` the same measures were 2.75 µM, 25.7 µM, 4.2 µM, more than 100 µM and 3.19 µM.

As usually defined, the IC50 is the concentration that inhibits the measured activity by half.

These data come from ChEMBL document CHEMBL2046429, “Synthesis and biological evaluation of N-aryl salicylamides with a hydroxamic acid moiety at 5-position as novel HDAC-EGFR dual inhibitors” (Bioorg Med Chem, 2012).
